# Test results taken from patent publication US20240025887A1, “THIENYL AND CYCLOALKYL AMINOPYRIMIDINE COMPOUNDS AS INHIBITORS OF NUAK KINASES, COMPOSITIONS AND USES THEREOF” (Ontario Institute for Cancer Research (OICR), priority 2021, published 2024).
# What was measured:
# Type in all cases: biochemical
# NUAK2 (h) = molecular target: T1, NUAK2 (h) (Homo sapiens, UniProt Q9H093); assay: NUAK2 enzymatic assay (radiometric, Eurofins); details: radiometric, full-length recombinant enzyme
# T1 construct: This assay was done radiometrically using full-length, recombinant enzyme; purchased Eurofins
# T1 sequence (Q9H093 1-628): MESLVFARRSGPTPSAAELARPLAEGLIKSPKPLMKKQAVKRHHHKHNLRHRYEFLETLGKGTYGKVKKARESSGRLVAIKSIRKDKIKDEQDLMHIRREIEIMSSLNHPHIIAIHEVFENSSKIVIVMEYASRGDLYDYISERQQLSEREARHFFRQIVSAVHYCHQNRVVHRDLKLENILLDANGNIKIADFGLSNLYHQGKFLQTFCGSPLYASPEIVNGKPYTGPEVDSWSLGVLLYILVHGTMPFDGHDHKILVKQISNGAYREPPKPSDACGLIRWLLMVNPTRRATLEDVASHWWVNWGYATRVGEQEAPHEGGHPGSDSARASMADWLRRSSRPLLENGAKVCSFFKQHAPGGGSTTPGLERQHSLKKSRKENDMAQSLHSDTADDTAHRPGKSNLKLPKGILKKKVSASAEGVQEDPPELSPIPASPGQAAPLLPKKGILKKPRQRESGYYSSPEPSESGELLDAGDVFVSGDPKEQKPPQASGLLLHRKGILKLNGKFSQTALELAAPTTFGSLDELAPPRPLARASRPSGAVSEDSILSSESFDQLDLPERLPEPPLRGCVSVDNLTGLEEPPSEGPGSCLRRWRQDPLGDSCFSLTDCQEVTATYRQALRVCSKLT
# Procedure: (§1) To identify small molecule NUAK inhibitors, a biochemical NUAK2 enzymatic assay was outsourced to Eurofins. This assay was done radiometrically using full-length, recombinant enzyme. NUAK2 (h) was incubated with 8 mM MOPS pH 7.0, 0.2 mM EDTA, 300 μM […], 10 mM magnesium acetate and […] (specific activity and concentration as required). The reaction was initiated by the addition of the Mg/ATP mix. After incubation for 40 minutes at room temperature, the reaction was stopped by the addition of phosphoric acid to a concentration of 0.5%. 10 μL of the reaction was then spotted onto a P30 filter mat and washed four times for 4 minutes in 0.425% phosphoric acid and once in methanol prior to drying and scintillation counting. Compounds were routinely counter screened against Aurora A and NUAK1. The results are shown in Table 1 where IC50s are reported the following ranges: A: 0.1-10 nM; B: 11-100 nM; C: 101-1000 nM; D: >1000 nM for the compounds of Formula I)
# NUAK1 = molecular target: T2, NUAK1 (Homo sapiens, UniProt O60285); assay: NUAK1 counter screen
# T2 sequence (O60285 1-661): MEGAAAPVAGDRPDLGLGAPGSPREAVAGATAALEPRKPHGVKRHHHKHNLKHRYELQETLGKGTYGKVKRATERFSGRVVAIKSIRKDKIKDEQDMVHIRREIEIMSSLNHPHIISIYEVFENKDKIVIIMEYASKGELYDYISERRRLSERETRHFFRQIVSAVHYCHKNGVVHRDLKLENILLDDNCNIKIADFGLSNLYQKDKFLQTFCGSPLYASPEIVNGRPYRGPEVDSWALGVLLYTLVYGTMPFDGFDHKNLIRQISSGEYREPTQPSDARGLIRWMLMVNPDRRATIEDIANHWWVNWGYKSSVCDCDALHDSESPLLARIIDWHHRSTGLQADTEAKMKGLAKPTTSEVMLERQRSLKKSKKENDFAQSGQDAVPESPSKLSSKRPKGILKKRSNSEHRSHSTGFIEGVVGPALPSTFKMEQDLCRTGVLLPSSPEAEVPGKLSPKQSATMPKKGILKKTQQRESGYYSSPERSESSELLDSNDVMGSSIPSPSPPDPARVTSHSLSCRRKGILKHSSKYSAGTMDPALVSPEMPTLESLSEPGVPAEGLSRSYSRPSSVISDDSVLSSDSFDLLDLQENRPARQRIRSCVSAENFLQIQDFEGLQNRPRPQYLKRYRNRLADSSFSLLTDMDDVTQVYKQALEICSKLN
# Procedure: as §1
# Aurora A = molecular target: T3, Aurora A (Homo sapiens, UniProt O14965); assay: Aurora A counter screen; details: read-out: AUR-A (IC50)
# T3 sequence (O14965 1-403): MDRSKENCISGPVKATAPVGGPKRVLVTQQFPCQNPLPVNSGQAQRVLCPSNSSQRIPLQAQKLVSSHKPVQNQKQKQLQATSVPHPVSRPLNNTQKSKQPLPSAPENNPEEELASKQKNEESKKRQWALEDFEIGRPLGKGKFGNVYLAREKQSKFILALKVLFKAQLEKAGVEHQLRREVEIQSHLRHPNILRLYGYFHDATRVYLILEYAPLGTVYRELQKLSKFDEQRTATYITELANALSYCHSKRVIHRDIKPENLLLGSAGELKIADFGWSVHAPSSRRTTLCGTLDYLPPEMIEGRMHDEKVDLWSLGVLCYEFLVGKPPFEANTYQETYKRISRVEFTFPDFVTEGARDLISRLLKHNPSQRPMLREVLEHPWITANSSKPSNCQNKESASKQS
# Procedure: as §1
IC50 (NUAK2 (h)),IC50 (NUAK1),IC50 (Aurora A),SMILES
0.011 to 0.1 µM,0.011 to 0.1 µM,0.101 to 1 µM,"CNC(=O)c1sccc1Nc1nc(Nc2ccc(N3CCN(C)CC3)cc2OC(F)F)ncc1Cl [Compound I-7, 3-((5-chloro-2-((2-(difluoromethoxy)-4-(4-methylpiperazin-1-yl)phenyl)amino)pyrimidin-4-yl)amino)-N-methylthiophene-2-carboxamide]"
0.0001 to 0.01 µM,0.0001 to 0.01 µM,0.011 to 0.1 µM,"CN1CCN(C2CCN(c3ccc(Nc4ncc(Cl)c(Nc5cscc5C(N)=O)n4)c(OC(F)F)c3)CC2)CC1 [Compound I-51, 4-((5-chloro-2-((2-(difluoromethoxy)-4-(4-(4-methylpiperazin-1-yl)piperidin-1-yl)phenyl)amino)pyrimidin-4-yl)amino)thiophene-3-carboxamide]"
0.011 to 0.1 µM,0.011 to 0.1 µM,> 1 µM,"CN1CCN(c2ccc(Nc3ncc(Cl)c(N[C@@H]4CCC[C@@H]4C(N)=O)n3)c(OC(F)F)c2)CC1 [Compound I-86, (1S,2R)-2-((5-chloro-2-((2-(difluoromethoxy)-4-(4-methylpiperazin-1-yl)phenyl)amino)pyrimidin-4-yl)amino)cyclopentane-1-carboxamide]"
0.011 to 0.1 µM,0.011 to 0.1 µM,0.101 to 1 µM,"Cc1csc(Nc2nc(Nc3ccc(N4CCN(C)CC4)cc3OC(F)F)ncc2Cl)c1C(N)=O [Compound I-15, 2-((5-chloro-2-((2-(difluoromethoxy)-4-(4-methylpiperazin-1-yl)phenyl)amino)pyrimidin-4-yl)amino)-4-methylthiophene-3-carboxamide]"
0.011 to 0.1 µM,0.0001 to 0.01 µM,0.101 to 1 µM,"CN(C)[C@@H]1CCN(c2ccc(Nc3ncc(Cl)c(Nc4ccsc4C(N)=O)n3)c(OC(F)F)c2)C1 [Compound I-55, (R)-3-((5-chloro-2-((2-(difluoromethoxy)-4-(3-(dimethylamino)pyrrolidin-1-yl)phenyl)amino)pyrimidin-4-yl)amino)thiophene-2-carboxamide]"
0.0001 to 0.01 µM,0.011 to 0.1 µM,0.011 to 0.1 µM,"CC(C)N1CCN(c2ccc(Nc3ncc(Cl)c(Nc4sccc4C(N)=O)n3)c(OC(F)F)c2)CC1 [Compound I-13, 2-((5-chloro-2-((2-(difluoromethoxy)-4-(4-isopropylpiperazin-1-yl)phenyl)amino)pyrimidin-4-yl)amino)thiophene-3-carboxamide]"
0.011 to 0.1 µM,0.011 to 0.1 µM,0.101 to 1 µM,"C[C@H]1CN(c2ccc(Nc3ncc(Cl)c(Nc4sccc4C(N)=O)n3)c(OC(F)F)c2)CCN1C [Compound I-23, (S)-2-((5-chloro-2-((2-(difluoromethoxy)-4-(3,4-dimethylpiperazin-1-yl)phenyl)amino)pyrimidin-4-yl)amino)thiophene-3-carboxamide]"
0.011 to 0.1 µM,0.011 to 0.1 µM,0.101 to 1 µM,"CN1CCN(c2cc(OC(F)F)c(Nc3ncc(Cl)c(Nc4ccsc4C(N)=O)n3)cc2F)CC1 [Compound I-6, 3-((5-chloro-2-((2-(difluoromethoxy)-5-fluoro-4-(4-methylpiperazin-1-yl)phenyl)amino)pyrimidin-4-yl)amino)thiophene-2-carboxamide]"
0.011 to 0.1 µM,0.011 to 0.1 µM,0.011 to 0.1 µM,"CC(C)(C)N1CCN(c2ccc(Nc3ncc(Cl)c(Nc4sccc4C(N)=O)n3)c(OC(F)F)c2)CC1 [Compound I-22, 2-((2-((4-(4-(tert-butyl)piperazin-1-yl)-2-(difluoromethoxy)phenyl)amino)-5-chloropyrimidin-4-yl)amino)thiophene-3-carboxamide]"
0.011 to 0.1 µM,0.011 to 0.1 µM,0.101 to 1 µM,"CN1CCC2(CC1)CCN(c1ccc(Nc3ncc(Cl)c(Nc4ccsc4C(N)=O)n3)c(OC(F)F)c1)CC2 [Compound I-54, 3-((5-chloro-2-((2-(difluoromethoxy)-4-(9-methyl-3,9-diazaspiro[5.5]undecan-3-yl)phenyl)amino)pyrimidin-4-yl)amino)thiophene-2-carboxamide]"
0.011 to 0.1 µM,0.011 to 0.1 µM,0.011 to 0.1 µM,"NC(=O)c1sccc1Nc1nc(Nc2ccc(N3CCC(O)CC3)cc2OC(F)F)ncc1Cl [Compound I-60, 3-((5-chloro-2-((2-(difluoromethoxy)-4-(4-hydroxypiperidin-1-yl)phenyl)amino)pyrimidin-4-yl)amino)thiophene-2-carboxamide]"
0.0001 to 0.01 µM,0.0001 to 0.01 µM,0.011 to 0.1 µM,"C[C@H]1CN(c2ccc(Nc3ncc(Cl)c(Nc4ccsc4C(N)=O)n3)c(OC(F)F)c2)CCN1C [Compound I-21, (S)-3-((5-chloro-2-((2-(difluoromethoxy)-4-(3,4-dimethylpiperazin-1-yl)phenyl)amino)pyrimidin-4-yl)amino)thiophene-2-carboxamide]"
0.0001 to 0.01 µM,0.011 to 0.1 µM,0.101 to 1 µM,"C[C@@H]1CN(C2CCN(c3ccc(Nc4ncc(Cl)c(Nc5ccsc5C(N)=O)n4)c(OC(F)F)c3)CC2)C[C@H](C)N1C [Compound I-64, 3-((5-chloro-2-((2-(difluoromethoxy)-4-(4-((3R,5S)-3,4,5-trimethylpiperazin-1-yl)piperidin-1-yl)phenyl)amino)pyrimidin-4-yl)amino)thiophene-2-carboxamide]"
0.0001 to 0.01 µM,0.011 to 0.1 µM,0.101 to 1 µM,"C[C@@H]1CN(c2ccc(Nc3ncc(Cl)c(Nc4sccc4C(N)=O)n3)c(OC(F)F)c2)C[C@H](C)N1C [Compound I-11, 2-((5-chloro-2-((2-(difluoromethoxy)-4-((3R,5S)-3,4,5-trimethylpiperazin-1-yl)phenyl)amino)pyrimidin-4-yl)amino)thiophene-3-carboxamide]"
0.0001 to 0.01 µM,0.0001 to 0.01 µM,0.101 to 1 µM,"CN1CCN(c2ccc(Nc3ncc(C(F)(F)F)c(Nc4ccsc4C(N)=O)n3)c(OC(F)F)c2)CC1 [Compound I-27, 3-((2-((2-(difluoromethoxy)-4-(4-methylpiperazin-1-yl)phenyl)amino)-5-(trifluoromethyl)pyrimidin-4-yl)amino)thiophene-2-carboxamide]"
0.011 to 0.1 µM,0.011 to 0.1 µM,0.101 to 1 µM,"CC(C)N1CCN(C2CCN(c3ccc(Nc4ncc(Cl)c(Nc5ccsc5C(N)=O)n4)c(OC(F)F)c3)CC2)CC1 [Compound I-62, 3-((5-chloro-2-((2-(difluoromethoxy)-4-(4-(4-isopropylpiperazin-1-yl)piperidin-1-yl)phenyl)amino)pyrimidin-4-yl)amino)thiophene-2-carboxamide]"
0.011 to 0.1 µM,0.011 to 0.1 µM,0.011 to 0.1 µM,"NC(=O)c1sccc1Nc1nc(Nc2ccc(N3CCOCC3)cc2OC(F)F)ncc1Cl [Compound I-24, 3-((5-chloro-2-((2-(difluoromethoxy)-4-morpholinophenyl)amino)pyrimidin-4-yl)amino)thiophene-2-carboxamide]"
